System: cancer patients subjected to IMRT irradiation (bone marrow damage by radiation)
Conditions: mean±SE, n=16, before treatment taken as 1
Method: These patients were subjected to IMRT irradiation integrated with a computed tomograph (CT). Irradiation was in principle performed on a schedule of once a day, five times per week, and this schedule was repeated. Radiation was applied at 1 to 5 locations for 5 to 20 minutes once, and the number of times irradiation was performed was 5 to 20.
These patients were housed in a hyperbaric capsule (APF 2, 700×1900 mm; oxygen concentration: 28% by volume; Air Press Co., Ltd.) at 1.35 atm for 30 minutes after each irradiation with radiation to alleviate the adverse effects.
In addition, 16 patients (8 males and 8 females) who had visited from April 2016 until November 2016 were included in the hydrogen group. These patients were housed in the capsule similar to the above-mentioned capsule except that a hydrogen gas inhaler (MHG-44280, MiZ Company Limited), which generates approximately 6.5% by volume of hydrogen gas (4 L/min) by electrolysis of water, was connected in series with and upstream the air intake of the pressurizing device for the hyperbaric capsule provided outside the capsule, so as to feed high-pressure air containing hydrogen gas into the capsule, while the patients were allowed to inhale, via the nasal cannula, for 30 minutes, 4% by volume to 6% by volume of hydrogen gas (4 L/min) carried through a Y-shaped tube by which the air outlets of two hydrogen gas inhalers (MHG-2070 and MHG-2140, MiZ Company Limited) provided in the capsule were connected in parallel. The hydrogen gas concentration in the ceiling portion of the capsule was approximately 0.2% by volume.
Blood samples were taken periodically from both groups of patients before, during and after radiation treatment. The analysis items of blood were the white blood cell count (WBC), red blood cell count (RBC), hemoglobin level (Hb), hematocrit level (Ht) and platelet count (PLT), and these were used as indicators for hematopoietic function.

[1] = 4-6% by volume hydrogen gas inhaled 30 min in hyperbaric capsule at 1.35 atm, no significant difference vs control

Structure (SMILES): [HH] [H2, hydrogen gas]
- WBC ratio: relative value of the white blood cell count (WBC) immediately after radiation treatment to the WBC before radiation treatment (4-6% by volume hydrogen gas inhaled 30 min in hyperbaric capsule at 1.35 atm after each irradiation, p<0.01 vs control): 0.612±0.088
- Hb ratio: relative value of the hemoglobin level (Hb) immediately after radiation treatment to the Hb before radiation treatment [1]: 0.966±0.029
- Ht ratio: relative value of the hematocrit level (Ht) immediately after radiation treatment to the Ht before radiation treatment [1]: 0.953±0.027
- RBC ratio: relative value of the red blood cell count (RBC) immediately after radiation treatment to the RBC before radiation treatment [1]: 0.985±0.027
- PLT ratio: relative value of the platelet count (PLT) immediately after radiation treatment to the PLT before radiation treatment (4-6% by volume hydrogen gas inhaled 30 min in hyperbaric capsule at 1.35 atm, p<0.05 vs control): 0.752±0.130
